{
  "source": "patent US9060989B2",
  "about": "“Method for treating or relieving inflammatory bowel disease” (INDUSTRIAL TECHNOLOGY RESEARCH INSTITUTE, priority 2010, dated 2015)",
  "system": "enteritis induced by trinitrobenzene sulfonic acid (TNBS)",
  "experiment": "Improvement of bowel swelling and mushy or watery feces in TNBS-induced enteritis",
  "format": "in vivo",
  "conditions": "TNBS-induced enteritis mice, oral; extracts 100 mg/kg (B. krylovianum also 1000 mg/kg), 5-ASA 200 mg/kg; 6 cm bowel from the anus observed",
  "source_text": "The animal model of enteritis for test is from an induction by trinitrobenzene sulfonic acid (TNBS) (Current Protocols in Immunology (2001) 15.19.1-15.19.14; Lahat G, Halperin D, Fabian I, et al. Immunomodulatory Effects of Ciprofloxacin in TNBS-Induced Colitis in Mice. Inflamm Bowel Dis 2007;13:557-565; ten Hove T, van den Blink B, Pronk I, et al. Dichotomal role of inhibition of p38 MAPK with SB 203580 in experimental colitis. Gut 2002; 50:507-512; and Bouma G, Strober W. The Immunological and Genetic Basis of Inflammatory Bowel Disease. Nature Review Immunology 2003; 3: 521-533). The bowel in the animal model of enteritis has swelled and the feces therein show a mushy or watery appearance instead of a normal semi-solid type appearance.\nSpecifically, BABL/cAnNCrlBltw mice, purchased from BioLASCO Taiwan (Bltw) were grouped into four groups having 6 mice to a group. In three of the groups, each mouse was injected with 1.75 mg of trinitrobenzene sulfonic acid (TNBS) (Sigma) at a 4 cm depth of the bowel from the anus. After 48 hours, the injected location was induced to form enteritis. Mice in another group were injected with a 50% ethanol aqueous solution without TNBS at a 4 cm depth of the bowel from the anus as a negative control (A). The location injected ethanol aqueous solution without TNBS was not induced to form enteritis. […]",
  "data": [
    {"smiles": "Nc1ccc(O)c(C(=O)O)c1", "note": "[5-ASA, 5-aminosalicylic acid]", "values": [
      {"measurement": "bowel swelling", "value": "not alleviated or eliminated"}
    ]}
  ]
}
